From PubChem BioAssay (NCI)
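Method: 48-hour compound exposure of cells in 96-well plates, five concentrations, linear interpolation of endpoints. TGI denotes the concentration required for complete inhibition of growth.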

Key:
Assay in all cases: inhibition of tumour cell growth, NCI panel, 48 h
NCI/ADR-RES ovarian = system: NCI/ADR-RES ovarian
MOLT-4 leukemia = system: MOLT-4 leukemia
OVCAR-5 ovarian = system: OVCAR-5 ovarian
SK-MEL-28 melanoma = system: SK-MEL-28 melanoma
T-47D breast = system: T-47D breast
SF-539 CNS = system: SF-539 CNS
HCT-116 colon = system: HCT-116 colon
A498 renal = system: A498 renal
M14 melanoma = system: M14 melanoma
COLO 205 colon = system: COLO 205 colon

| Structure (SMILES) | TGI (NCI/ADR-RES ovarian) | TGI (MOLT-4 leukemia) | TGI (OVCAR-5 ovarian) | TGI (SK-MEL-28 melanoma) | TGI (T-47D breast) | TGI (SF-539 CNS) | TGI (HCT-116 colon) | TGI (A498 renal) | TGI (M14 melanoma) | TGI (COLO 205 colon) |
| --- | --- | --- | --- | --- | --- | --- | --- | --- | --- | --- |
| O=c1c(Cc2ccc(Cl)cc2)nnc2sc(-c3ccc(-c4ccc(Cl)cc4Cl)o3)nn12 | > 100 µM | > 100 µM | > 100 µM | > 100 µM | > 100 µM | > 100 µM | > 100 µM | > 100 µM | > 100 µM | > 100 µM |
| CC(C)(C)N/N=C(\C(=O)NC1=C(Cl)C(=O)c2ccccc2C1=O)C1C=CCS1(=O)=O (stereo not drawn) | 71.9 µM | > 100 µM | 35.5 µM | > 100 µM | 37.8 µM | 54.2 µM | 35 µM | 36.7 µM | 23.7 µM | 30.2 µM |
| CCc1c(-c2ccc(OC)cc2)oc(OC)c(C)c1=O | > 100 µM | > 100 µM | > 100 µM | > 100 µM | > 100 µM | > 100 µM | > 100 µM | > 100 µM | > 100 µM | > 100 µM |
| C/C(=C/CC[C@]1(CO)CC[C@]2(C)[C@H](CC[C@@H]3[C@@]4(C)CC[C@H](OC5OC(CO)C(O)C(O)C5OC5OC(CO)C(O)C(O)C5O)C(C)(C)[C@@H]4CC[C@]32C)[C@H]1O)CO (stereo partly drawn) | > 100 µM | > 100 µM | > 100 µM | > 100 µM | > 100 µM | > 100 µM | > 100 µM | > 100 µM | > 100 µM | > 100 µM |
| Cc1cccc(CC(Cc2ccc(C)cc2C(=O)O)C(=O)O)c1 (stereo not drawn) | > 100 µM | > 100 µM | > 100 µM | > 100 µM | > 100 µM | > 100 µM | > 100 µM | > 100 µM | > 100 µM | > 100 µM |
| Cc1cc2nc3c(C#N)c4c(c(-c5ccc(Cl)cc5)n3c2cc1C)CCC4 | > 100 µM | 57.5 µM |  | 50.3 µM | 52.1 µM | 78.9 µM | 32.7 µM | 79.4 µM | 32.7 µM | 39.1 µM |
| COC(=O)Nc1nc2ccc(S(=O)(=O)N3CCOCC3)cc2[nH]1 | > 100 µM | > 100 µM | > 100 µM | > 100 µM | > 100 µM | 31 µM | > 100 µM | > 100 µM | > 100 µM | > 100 µM |
| Cc1ccc2c(c1)nc1n2C(N)=Nc2ccccc2S1 | > 100 µM | > 100 µM | > 100 µM | > 100 µM | > 100 µM | > 100 µM | > 100 µM | > 91.6 µM | > 100 µM | > 100 µM |
| CC(C)(NC(=O)OCc1ccccc1)C(=O)OC(=O)C(C)(C)NC(=O)OCc1ccccc1 | > 100 µM | > 100 µM | > 100 µM | > 100 µM | > 100 µM | > 100 µM | > 100 µM | > 100 µM | > 100 µM | > 100 µM |
| OC1(c2ccc(Cl)cc2)c2ccccc2-c2nc3ccccc3n21 (stereo not drawn) | > 100 µM | > 100 µM | > 100 µM | > 100 µM | > 100 µM | > 100 µM | > 100 µM | > 100 µM | > 100 µM | > 100 µM |
| O=C(SCc1cccc2ccccc12)c1ccc(Cl)cc1 | > 100 µM |  | > 100 µM | > 100 µM | > 100 µM | > 100 µM | > 100 µM | > 100 µM | > 100 µM | > 100 µM |
| CC1OC(OC2C(O[C@H]3CC[C@@]4(C)C(=CC[C@H]5[C@@H]6C[C@@H]7O[C@]8(CC[C@@H](C)CO8)[C@@H](C)[C@@H]7[C@@]6(C)CC[C@@H]54)C3)OC(CO)C(O)C2O)C(O)C(O)C1O (stereo partly drawn) | 4.64 µM | > 25 µM | 6.16 µM | > 11.8 µM | 8.66 µM | 4.53 µM | 3.95 µM | 2.98 µM | 2.44 µM | 6.33 µM |
| O=c1[nH]c(NCc2ccc(Cl)cc2)nc2nc[nH]c12 | > 100 µM | > 100 µM | > 100 µM |  | > 100 µM | > 100 µM | > 100 µM | > 100 µM | > 100 µM | > 100 µM |
| O=C(NO)NCCCl | > 100 µM | > 100 µM | > 100 µM |  | > 100 µM | > 100 µM | > 100 µM | > 100 µM | > 100 µM | > 100 µM |
| Cc1ccc(C2(c3ccc(F)cc3)OC(=O)c3ccccc32)c(O)c1 (stereo not drawn) | 46.8 µM | 76.3 µM | 28.5 µM |  | 28.1 µM | 37.5 µM | 26.2 µM | 36.7 µM | 30.1 µM | 41.6 µM |
| O=C(O)/C=C/c1ccc2c(c1)CC1(Cc3ccccc3C1)C2 | > 100 µM | > 100 µM | > 100 µM |  | > 100 µM | > 100 µM | 51.4 µM | > 100 µM | > 100 µM | 52.3 µM |
| C/C(=N\Nc1nc2ccccc2s1)c1cc2ccccc2cn1 | 42 µM |  | 54.5 µM | > 100 µM | 23.2 µM | 25.6 µM | 10.6 µM | 29 µM | 23.2 µM | 13.3 µM |
